Measured values published in patent US10640534B2 (Agios Pharmaceuticals, Inc., priority 2012, dated 2020).

System: U87MG cells
Assay: Cellular assay, inhibition of 2-HG production in U87MG cells
Assay type: cell-based
Conditions: Homo sapiens, U-87 MG, 48 h
Experimental: Cells (HT1080 or U87MG) are grown in T125 flasks in DMEM containing 10% FBS, 1× penicillin/streptomycin and 500 ug/mL G418 (present in U87MG cells only). They are harvested by trypsin and seeded into 96 well white bottom plates at a density of 5000 cell/well in 100 ul/well in DMEM with 10% FBS. […] Cells are incubated overnight at 37° C. in 5% CO2. The next day test compounds are made up at 2× the final concentration and 100 ul are added to each cell well. The final concentration of DMSO is 0.2% and the DMSO control wells are plated in row G. The plates are then placed in the incubator for 48 hours. […] The cell plate is placed back in the incubator for another 24 hours. At 72 hours post compound addition, 10 mL/plate of Promega Cell Titer Glo reagent is thawed and mixed. The cell plate is removed from the incubator and allowed to equilibrate to room temperature. Then 100 ul of Promega Cell Titer Glo reagent is added to each well of media. The cell plate is then placed on an orbital shaker for 10 minutes and then allowed to sit at room temperature for 20 minutes. The plate is then read for luminescence with an integration time of 500 ms.

| SMILES | IC50 |
| --- | --- |
| N#Cc1ccnc(N2C(=O)CC[C@H]2C(=O)N(c2cncc(F)c2)[C@H](C(=O)NC2CC(F)(F)C2)c2ccccc2F)c1 [Compound 148, (S)-1-(4-Cyanopyridin-2-yl)-N—((S)-2-((3,3-difluorocyclobutyl)amino)-1-(2-fluorophenyl)-2-oxoethyl)-N-(5-fluoropyridin-3-yl)-5-oxopyrrolidine-2-carboxamide] | < 100 nM |
| CS(=O)(=O)c1cc(F)cc(N(C(=O)[C@@H]2CCC(=O)N2c2nccc(C#N)n2)C(C(=O)NC2CCC(F)(F)CC2)c2ccccc2Cl)c1 (stereo partly drawn) [Compound 108, (2S)—N-(1-(2-Chlorophenyl)-2-((4,4-difluorocyclohexyl)amino)-2-oxoethyl)-1-(4-cyanopyrimidin-2-yl)-N-(3-fluoro-5-(methylsulfonyl)phenyl)-5-oxopyrrolidine-2-carboxamide] | < 100 nM |
| N#Cc1ccnc(N2C(=O)[C@H](O)C[C@H]2C(=O)N(c2cc(F)cc(F)c2)[C@@H](C(=O)NC2CC(F)(F)C2)c2ccccc2Cl)n1 [Compound 116, (2S,4R)—N—((R)-1-(2-Chlorophenyl)-2-((3,3-difluorocyclobutyl)amino)-2-oxoethyl)-1-(4-cyanopyrimidin-2-yl)-N-(3,5-difluorophenyl)-4-hydroxy-5-oxopyrrolidine-2-carboxamide] | 100 to 500 nM |
| Cn1ccc2cc(N(C(=O)[C@@H]3CCC(=O)N3c3cc(C#N)ccn3)[C@H](C(=O)NC3CC(F)(F)C3)c3ccccc3Cl)ccc21 [Compound 209, (S)—N—((S)-1-(2-Chlorophenyl)-2-((3,3-difluorocyclobutyl)amino)-2-oxoethyl)-1-(4-cyanopyridin-2-yl)-N-(1-methyl-1H-indol-5-yl)-5-oxopyrrolidine-2-carboxamide] | < 100 nM |
| N#Cc1cc(F)cc(N(C(=O)[C@@H]2CCC(=O)N2c2cc(C#N)ccn2)[C@H](C(=O)NC2CC(F)(F)C2)c2ccccc2)c1 [Compound 211, (S)—N-(3-Cyano-5-fluorophenyl)-1-(4-cyanopyridin-2-yl)-N—((S)-2-(3,3-difluorocyclobutyl-amino)-2-oxo-1-phenylethyl)-5-oxopyrrolidine-2-carboxamide] | < 100 nM |
| N#Cc1cc(F)cc(N(C(=O)[C@@H]2CCC(=O)N2c2cc(C#N)ccn2)[C@H](C(=O)NC2CC(F)(F)C2)c2ccccc2F)c1 [Compound 207, (S)—N-(3-Cyano-5-fluorophenyl)-1-(4-cyanopyridin-2-yl)-N—((S)-2-((3,3-difluorocyclobutyl)amino)-1-(2-fluorophenyl)-2-oxoethyl)-5-oxopyrrolidine-2-carboxamide] | < 100 nM |
| N#Cc1ccnc(N2C(=O)[C@H](O)C[C@H]2C(=O)N(c2cc(F)cc(F)c2)[C@H](C(=O)NC2CC(F)(F)C2)c2ccccc2Cl)n1 [Compound 117, (2S,4R)—N—((S)-1-(2-Chlorophenyl)-2-((3,3-difluorocyclobutyl)amino)-2-oxoethyl)-1-(4-cyanopyrimidin-2-yl)-N-(3,5-difluorophenyl)-4-hydroxy-5-oxopyrrolidine-2-carboxamide] | < 100 nM |
| N#Cc1ccnc(N2C(=O)CC[C@H]2C(=O)N(c2ccc3[nH]ncc3c2)[C@H](C(=O)NC2CC(F)(F)C2)c2ccccc2Cl)c1 [Compound 175, (S)—N—((S)-1-(2-Chlorophenyl)-2-((3,3-difluorocyclobutyl)amino)-2-oxoethyl)-1-(4-cyanopyridin-2-yl)-N-(1H-indazol-5-yl)-5-oxopyrrolidine-2-carboxamide] | < 100 nM |
| N#Cc1ccnc(N2C(=O)CC[C@H]2C(=O)N(c2ccccc2F)[C@H](C(=O)NC2CC(F)(F)C2)c2ccccc2Cl)c1 [Compound 187, (S)—N—((S)-1-(2-Chlorophenyl)-2-((3,3-difluorocyclobutyl)amino)-2-oxoethyl)-1-(4-cyanopyridin-2-yl)-N-(2-fluorophenyl)-5-oxopyrrolidine-2-carboxamide] | < 100 nM |
| N#Cc1ccnc(N2C(=O)CN(C3CC3)C[C@H]2C(=O)N(c2cc(F)cc(F)c2)[C@H](C(=O)NC2CC(F)(F)C2)c2ccccc2Cl)c1 [Compound 106, (S)—N—((S)-1-(2-chlorophenyl)-2-((3,3-difluorocyclobutyl)amino)-2-oxoethyl)-1-(4-cyanopyridin-2-yl)-4-cyclopropyl-N-(3,5-difluorophenyl)-6-oxopiperazine-2-carboxamide] | < 100 nM |
| CNS(=O)(=O)c1cccc(N(C(=O)[C@@H]2CCC(=O)N2c2cc(C#N)ccn2)[C@H](C(=O)NC2CC(F)(F)C2)c2ccccc2Cl)c1 [Compound 157] | < 100 nM |
| CN1CC(=O)N(c2cc(C#N)ccn2)[C@H](C(=O)N(c2cc(F)cc(F)c2)[C@H](C(=O)NC2CC(F)(F)C2)c2ccccc2Cl)C1 [Compound 101, (S)—N—((S)-1-(2-chlorophenyl)-2-((3,3-difluorocyclobutyl)amino)-2-oxoethyl)-1-(4-cyanopyridin-2-yl)-N-(3,5-difluorophenyl)-4-methyl-6-oxopiperazine-2-carboxamide] | < 100 nM |

Other lines, results leading:

| IC50 | SMILES |
| --- | --- |
| < 100 nM | N#Cc1ccnc(N2C(=O)CC[C@H]2C(=O)N(c2cncc(F)c2)[C@H](C(=O)NC2CCC(F)(F)CC2)c2ccccc2Cl)c1 [Compound 193, (S)—N—((S)-1-(2-Chlorophenyl)-2-(4,4-difluorocyclohexylamino)-2-oxoethyl)-1-(4-cyanopyridin-2-yl)-N-(5-fluoropyridin-3-yl)-5-oxopyrrolidine-2-carboxamide] |
| < 100 nM | O=C(NC1CC(F)(F)C1)[C@H](c1ccccc1Cl)N(C(=O)[C@@H]1COC(=O)N1c1ncccn1)c1cccc(F)c1 [Compound 9, (S)—N—((S)-1-(2-chloro-phenyl)-2-(3,3-difluorocyclo-butylamino)-2-oxoethyl)-N-(3-fluorophenyl)-2-oxo-3-(pyrimidin-2-yl)oxazolidine-4-carboxamide] |
| < 100 nM | N#Cc1ccnc(N2C(=O)OCC[C@H]2C(=O)N(c2cncc(F)c2)[C@H](C(=O)NC2CC(F)(F)C2)c2ccccc2Cl)c1 [Compound 143, (S)—N—((S)-1-(2-Chlorophenyl)-2-((3,3-difluorocyclobutyl)amino)-2-oxoethyl)-3-(4-cyanopyridin-2-yl)-N-(5-fluoropyridin-3-yl)-2-oxo-1,3-oxazinane-4-carboxamide] |
| < 100 nM | CS(=O)(=O)c1cccc(N(C(=O)[C@@H]2CCC(=O)N2c2cc(C#N)ccn2)C(C(=O)NC2CC(F)(F)C2)c2ccccc2Cl)c1 (stereo partly drawn) [Compound 96, (2S)—N-(1-(2-Chlorophenyl)-2-((3,3-difluorocyclobutyl)amino)-2-oxoethyl)-1-(4-cyanopyridin-2-yl)-N-(3-(methylsulfonyl)phenyl)-5-oxopyrrolidine-2-carboxamide] |
| < 100 nM | N#Cc1ccnc(N2C(=O)[C@H](F)C[C@H]2C(=O)N(c2cccc(F)c2)[C@H](C(=O)NC2CCC(F)(F)CC2)c2ccccc2Cl)c1 [Compound 151, (2S,4R)—N—((S)-1-(2-Chlorophenyl)-2-((4,4-difluorocyclohexyl)amino)-2-oxoethyl)-1-(4-cyanopyridin-2-yl)-4-fluoro-N-(3-fluorophenyl)-5-oxopyrrolidine-2-carboxamide] |
| < 100 nM | N#Cc1ccnc(N2C(=O)CC[C@H]2C(=O)N(c2cc(F)cc(F)c2)[C@H](C(=O)NC2CCC(F)(F)CC2)c2ccccc2Cl)c1 [Compound 81, (2S)—N-(1-(2-Chlorophenyl)-2-(4,4-difluorocyclohexylamino)-2-oxoethyl)-1-(4-cyanopyridin-2-yl)-N-(3,5-difluorophenyl)-5-oxopyrrolidine-2-carboxamide] |
| < 100 nM | O=C(NC1CCC(F)(F)CC1)[C@H](c1ccccc1Cl)N(C(=O)[C@@H]1CCC(=O)N1c1ncccn1)c1cccc(F)c1 [Compound 4, (S)—N—((S)-1-(2-chlorophenyl)-2-((4,4-difluorocyclohexyl)amino)-2-oxoethyl)-N-(3-fluorophenyl)-5-oxo-1-(pyrimidin-2-yl)pyrrolidine-2-carboxamide] |
| < 100 nM | CCOC(=O)CN1C[C@@H](C(=O)N(c2cccc(F)c2)C(C(=O)NC2CC(F)(F)C2)c2ccccc2Cl)N(c2cc(C#N)ccn2)C1=O (stereo partly drawn) [Compound 94, Ethyl 2-((4S)-4-((1-(2-chlorophenyl)-2-((3,3-difluorocyclobutyl)amino)-2-oxoethyl)(3-fluorophenyl)carbamoyl)-3-(4-cyanopyridin-2-yl)-2-oxoimidazolidin-1-yl)acetate] |
| < 100 nM | N#Cc1ccnc(N2C(=O)OC[C@H]2C(=O)N(c2cccc(F)c2)[C@H](C(=O)NC2CCC(F)(F)CC2)c2ccccc2Cl)c1 [Compound 78, (S)—N—((S)-1-(2-Chlorophenyl)-2-((4,4-difluorocyclohexyl)amino)-2-oxoethyl)-3-(4-cyano-pyridin-2-yl)-N-(3-fluorophenyl)-2-oxooxazolidine-4-carboxamide] |
| < 100 nM | N#Cc1cc(F)cc(N(C(=O)[C@@H]2CCC(=O)N2c2cc(C#N)ccn2)[C@H](C(=O)NC2CCC(F)(F)CC2)c2ccccc2Cl)c1 [Compound 184, (S)—N—((S)-1-(2-Chlorophenyl)-2-(4,4-difluorocyclohexylamino)-2-oxoethyl)-N-(3-cyano-5-fluorophenyl)-1-(4-cyanopyridin-2-yl)-5-oxopyrrolidine-2-carboxamide] |
| < 100 nM | CN(C)c1cccc(N(C(=O)[C@@H]2CCC(=O)N2c2cc(C#N)ccn2)[C@H](C(=O)NC2CC(F)(F)C2)c2ccccc2Cl)c1 [Compound 161, (S)—N—((S)-1-(2-Chlorophenyl)-2-(3,3-difluorocyclobutylamino)-2-oxoethyl)-1-(4-cyanopyridin-2-yl)-N-(3-(dimethylamino)phenyl)-5-oxopyrrolidine-2-carboxamide] |
